Measurements: patent US20090118375A1, “Optically active phthalamides” (priority 2004, published 2009)
One block for each molecule: values may come before it.

Key:
Phaedon cochleariae = test: Phaedon test (spray application); format: in vivo; conditions: topical, 168 h, spray on Chinese cabbage leaves, after 7 d, read-out: Kill rate in % after 7 d
Procedure: Phaedon Test (Spray Application) [table] To produce a suitable preparation of active compound, 1 part by weight of active compound is mixed with the stated amounts of solvent and emulsifier, and the concentrate is diluted with emulsifier-containing water to the desired concentration. Chinese cabbage leaves (Brassica pekinensis) are treated by being sprayed with the preparation of the active compound of the desired concentration and are infested with mustard beetle larvae (Phaedon cochleariae) after the leaves have dried.

Spodoptera frugiperda = Spodoptera frugiperda test (spray application); format: in vivo; conditions: topical, 168 h, spray on maize leaf slices, after 7 d, read-out: Kill rate in % after 7 d
Procedure: Spodoptera frugiperda Test (Spray Application)
(§1) To produce a suitable preparation of active compound, 1 part by weight of active compound is mixed with the stated amounts of solvent and emulsifier, and the concentrate is diluted with emulsifier-containing water to the desired concentration.
Maize leave slices (Zea mays) are treated by being sprayed with the preparation of the active compound of the desired concentration and are infested with caterpillars of the fall army worm (Spodoptera frugiperda) after the leaves have dried.
(§2) After the specified period of time, the mortality in % is determined. 100% means that all the […] have been killed; 0% means that none of the […] have been killed.

Myzus persicae = test: Myzus test (spray application); format: in vivo; conditions: topical, 120 h, spray on Chinese cabbage leaves, after 5 d, read-out: Kill rate in % after 5 d
Procedure: Myzus Test (Spray Application)
as §1
Chinese cabbage leaves (Brassica pekinensis), which are infested by the green peach aphid (Myzus persicae), are treated by being sprayed with the preparation of the active compound of the desired concentration.
as §2

Spodoptera exigua = Spodoptera exigua test; format: in vivo; conditions: 168 h, cabbage leaves dipped, after 7 d, read-out: Kill rate in % after 7 d
Procedure: as §1
Cabbage leaves (Brassica oleracea) are treated by being dipped into the preparation of active compound of the desired concentration and are populated with caterpillars of the army worm (Spodoptera exigua) while the leaves are still moist.
(§3) After the desired period of time, the kill in % is determined. 100% means that all caterpillars have been killed; 0% means that none of the caterpillars have been killed.

Heliothis armigera = Heliothis armigera test; format: in vivo; conditions: Helicoverpa armigera, 168 h, soybean shoots dipped, after 7 d, read-out: Kill rate in % after 7 d
Procedure: as §1
Soybean shoots (Glycine max) are treated by being dipped into the preparation of active compound of the desired concentration and are populated with caterpillars of Heliothis armigera while the leaves are still moist.
as §3

SMILES: CCS(=O)(=O)C[C@H](C)NC(=O)c1c(I)cccc1C(=O)Nc1ccc(C(F)(C(F)(F)F)C(F)(F)Br)cc1C (some centres unmarked) [Compound 2]
pest or weed control at 20 g/ha (Phaedon cochleariae): 100%

SMILES: CCSC[C@H](C)NC(=O)c1c(I)cccc1C(=O)Nc1ccc(C(F)(C(F)F)C(F)(F)F)cc1Br (some centres unmarked) [Compound 6]
pest or weed control at 20 g/ha (Spodoptera frugiperda): 100%

SMILES: CCS(=O)(=O)C[C@H](C)NC(=O)c1c(I)cccc1C(=O)Nc1ccc(C(C(F)F)C(F)(F)F)cc1C (some centres unmarked) [Compound 7]
pest or weed control at 100 g/ha (Myzus persicae): 100%

melting point: 138 to 141 °C
SMILES: CCSC[C@H](C)NC(=O)c1c(I)cccc1C(=O)Nc1ccc(C(F)(C(F)F)C(F)(F)F)cc1F (some centres unmarked) [Compound 8]
pest or weed control at 20 ppm (Spodoptera exigua): 100%

melting point: 124 °C
SMILES: CSC[C@H](C)NC(=O)c1c(I)cccc1C(=O)Nc1ccc(C(F)(C(F)(F)F)C(F)(F)Br)cc1C (stereo partly drawn) [Compound 9, N^1-[4-(2-Bromo-1,2,2-trifluoro-1-trifluoromethyl-ethyl)-2-methyl-phenyl]-3-iodo-N^2-[(S)-1-methyl-2-methylsulfanyl-ethyl]-phthalamide]
pest or weed control at 20 ppm (Heliothis armigera): 100%

SMILES: CSC[C@H](C)NC(=O)c1c(I)cccc1C(=O)Nc1ccc(C(F)(C(F)F)C(F)(F)F)cc1C (some centres unmarked) [Compound 10]
pest or weed control at 20 g/ha (Phaedon cochleariae): 100%

SMILES: CSC[C@H](C)NC(=O)c1c(I)cccc1C(=O)Nc1ccc(C(F)(C(F)F)C(F)(F)F)cc1Cl (some centres unmarked) [Compound 12]
pest or weed control at 20 g/ha (Spodoptera frugiperda): 100%

melting point: 112 °C
SMILES: CCS(=O)(=O)C[C@H](C)NC(=O)c1c(I)cccc1C(=O)Nc1ccc(C(F)(C(F)F)C(F)(F)F)cc1C (some centres unmarked) [Compound 13]
pest or weed control at 20 ppm (Spodoptera exigua): 100%

SMILES: CSC[C@H](C)NC(=O)c1c(I)cccc1C(=O)Nc1ccc(C(C(F)F)C(F)(F)F)cc1Cl (some centres unmarked) [Compound 14]
pest or weed control at 20 ppm (Heliothis armigera): 100%
pest or weed control at 100 g/ha (Myzus persicae): 100%

SMILES: CSC[C@H](C)NC(=O)c1c(I)cccc1C(=O)Nc1ccc(C(F)(C(F)F)C(F)(F)F)cc1Br (some centres unmarked) [Compound 15]
pest or weed control at 20 g/ha (Phaedon cochleariae): 100%

SMILES: CSC[C@H](C)NC(=O)c1c(I)cccc1C(=O)Nc1ccc(C(F)(C(F)F)C(F)(F)F)cc1F (some centres unmarked) [Compound 16]
pest or weed control at 20 g/ha (Spodoptera frugiperda): 100%

SMILES: CSC[C@H](C)NC(=O)c1c(I)cccc1C(=O)Nc1ccc(C(C(F)F)C(F)(F)F)cc1F (some centres unmarked) [Compound 17]
pest or weed control at 100 g/ha (Myzus persicae): 100%

melting point: 128 °C
SMILES: Cc1cc(C(F)(C(F)(F)F)C(F)(F)Br)ccc1NC(=O)c1cccc(I)c1C(=O)N[C@@H](C)CS(C)(=O)=O (stereo partly drawn) [Compound 19, N^1-[4-(2-Bromo-1,2,2-trifluoro-1-trifluoromethyl-ethyl)-2-methyl-phenyl]-3-iodo-N^2-[2-methanesulfonyl-(S)-1-methyl-ethyl]-phthalamide]
pest or weed control at 20 ppm (Spodoptera exigua): 100%

melting point: 123 °C
SMILES: Cc1cc(C(C(F)F)C(F)(F)F)ccc1NC(=O)c1cccc(I)c1C(=O)N[C@@H](C)CS(C)(=O)=O (some centres unmarked) [Compound 20]
pest or weed control at 20 ppm (Heliothis armigera): 100%

SMILES: CSC[C@H](C)NC(=O)c1c(I)cccc1C(=O)Nc1ccc(C(C(F)F)C(F)(F)F)cc1Br (some centres unmarked) [Compound 22]
pest or weed control at 20 g/ha (Phaedon cochleariae): 100%

SMILES: CCS(=O)(=O)C[C@H](C)NC(=O)c1c(I)cccc1C(=O)Nc1ccc(C(C(F)F)C(F)(F)F)cc1Cl (some centres unmarked) [Compound 26]
pest or weed control at 100 g/ha (Myzus persicae): 100%
pest or weed control at 20 g/ha (Spodoptera frugiperda): 100%

SMILES: CSC[C@H](C)NC(=O)c1c(I)cccc1C(=O)Nc1ccc(C(F)(C(F)F)C(F)(F)F)cc1C#N (some centres unmarked) [Compound 29]
pest or weed control at 20 g/ha (Phaedon cochleariae): 83%

SMILES: C[C@@H](CS(C)(=O)=O)NC(=O)c1c(I)cccc1C(=O)Nc1ccc(C(F)(C(F)F)C(F)(F)F)cc1Br (some centres unmarked) [Compound 30]
pest or weed control at 20 g/ha (Spodoptera frugiperda): 100%

SMILES: CSC[C@H](C)NC(=O)c1c(Cl)cccc1C(=O)Nc1ccc(C(F)(C(F)F)C(F)(F)F)cc1C (some centres unmarked) [Compound 39]
pest or weed control at 20 g/ha (Spodoptera frugiperda): 100%

melting point: 105 °C
SMILES: CSC[C@H](C)NC(=O)c1c(Cl)cccc1C(=O)Nc1ccc(C(C(F)F)C(F)(F)F)cc1C (some centres unmarked) [Compound 40]
pest or weed control at 20 ppm (Heliothis armigera): 100%

SMILES: CSC[C@H](C)NC(=O)c1c(Cl)cccc1C(=O)Nc1ccc(C(F)(C(F)F)C(F)(F)F)cc1Cl (some centres unmarked) [Compound 41]
pest or weed control at 20 g/ha (Phaedon cochleariae): 100%

SMILES: Cc1cc(C(F)(C(F)(F)F)C(F)(F)Br)ccc1NC(=O)c1cccc(Cl)c1C(=O)N[C@@H](C)CS(C)(=O)=O (some centres unmarked) [Compound 43]
pest or weed control at 100 g/ha (Myzus persicae): 100%

SMILES: CCSC[C@H](C)NC(=O)c1c(Cl)cccc1C(=O)Nc1ccc(C(F)(C(F)(F)F)C(F)(F)Br)cc1C (some centres unmarked) [Compound 45]
pest or weed control at 20 g/ha (Phaedon cochleariae): 100%

melting point: 198 °C
SMILES: C[C@@H](CS(C)(=O)=O)NC(=O)c1c(Cl)cccc1C(=O)Nc1ccc(C(C(F)F)C(F)(F)F)cc1Cl (some centres unmarked) [Compound 48]
pest or weed control at 20 ppm (Heliothis armigera): 100%

SMILES: CCS(=O)(=O)C[C@H](C)NC(=O)c1c(Cl)cccc1C(=O)Nc1ccc(C(F)(C(F)(F)F)C(F)(F)Br)cc1C (some centres unmarked) [Compound 49]
pest or weed control at 20 g/ha (Spodoptera frugiperda): 100%

SMILES: CCSC[C@H](C)NC(=O)c1c(Cl)cccc1C(=O)Nc1ccc(C(F)(C(F)F)C(F)(F)F)cc1Cl (some centres unmarked) [Compound 50]
pest or weed control at 20 g/ha (Phaedon cochleariae): 100%

SMILES: CCSC[C@H](C)NC(=O)c1c(Cl)cccc1C(=O)Nc1ccc(C(C(F)F)C(F)(F)F)cc1Cl (some centres unmarked) [Compound 51]
pest or weed control at 100 g/ha (Myzus persicae): 100%

melting point: 148 °C
SMILES: CCSC[C@H](C)NC(=O)c1c(Br)cccc1C(=O)Nc1ccc(C(F)(C(F)F)C(F)(F)F)cc1Cl (some centres unmarked) [Compound 53]
pest or weed control at 20 ppm (Heliothis armigera): 100%

melting point: 175 °C
SMILES: CCS(=O)(=O)C[C@H](C)NC(=O)c1c(Cl)cccc1C(=O)Nc1ccc(C(F)(C(F)F)C(F)(F)F)cc1Cl (some centres unmarked) [Compound 55]
pest or weed control at 20 ppm (Heliothis armigera): 100%

SMILES: CCS(=O)(=O)C[C@H](C)NC(=O)c1c(Br)cccc1C(=O)Nc1ccc(C(F)(C(F)(F)F)C(F)(F)Br)cc1C (some centres unmarked) [Compound 57]
pest or weed control at 20 g/ha (Phaedon cochleariae): 100%

melting point: 118 °C
SMILES: CCS(=O)(=O)C[C@H](C)NC(=O)c1c(Br)cccc1C(=O)Nc1ccc(C(F)(C(F)F)C(F)(F)F)cc1Cl (some centres unmarked) [Compound 58]
pest or weed control at 20 ppm (Heliothis armigera): 100%

SMILES: Cc1cc(C(C(F)F)C(F)(F)F)ccc1NC(=O)c1cccc(I)c1C(=O)N[C@@H](C)C[S+](C)[O-] (some centres unmarked) [Compound 60]
pest or weed control at 20 g/ha (Phaedon cochleariae): 100%

SMILES: CC[S+]([O-])C[C@H](C)NC(=O)c1c(I)cccc1C(=O)Nc1ccc(C(C(F)F)C(F)(F)F)cc1C (some centres unmarked) [Compound 61]
pest or weed control at 20 g/ha (Phaedon cochleariae): 100%

SMILES: Cc1cc(C(C(F)F)C(F)(F)F)ccc1NC(=O)c1cccc(Cl)c1C(=O)N[C@@H](C)C[S+](C)[O-] (some centres unmarked) [Compound 62]
pest or weed control at 100 g/ha (Myzus persicae): 100%

SMILES: CSC[C@H](C)NC(=O)c1c(Br)cccc1C(=O)Nc1ccc(C(F)(C(F)(F)F)C(F)(F)Br)cc1C (some centres unmarked) [Compound 63]
pest or weed control at 100 g/ha (Myzus persicae): 90%

SMILES: Cc1cc(C(F)(C(F)(F)F)C(F)(F)Br)ccc1NC(=O)c1cccc(Br)c1C(=O)N[C@@H](C)CS(C)(=O)=O (some centres unmarked) [Compound 64]
pest or weed control at 20 g/ha (Spodoptera frugiperda): 90%

SMILES: Cc1cc(C(F)(C(F)(F)F)C(F)(F)Br)ccc1NC(=O)c1cccc(I)c1C(=O)N[C@@H](C)C[S+](C)[O-] (stereo partly drawn) [Compound 65, N^1-[4-(2-Bromo-1,2,2-trifluoro-1-trifluoromethyl-ethyl)-2-methyl-phenyl]-3-iodo-N^2-[2-methanesulfinyl-(S)-1-methyl-ethyl]-phthalamide]
pest or weed control at 200 g/ha (Spodoptera frugiperda; 200 g/ha): 100%

SMILES: Cc1cc(C(F)(C(F)F)C(F)(F)F)ccc1NC(=O)c1cccc(I)c1C(=O)N[C@@H](C)C[S+](C)[O-] (some centres unmarked) [Compound 66]
pest or weed control at 100 g/ha (Myzus persicae): 100%
pest or weed control at 20 g/ha (Spodoptera frugiperda): 100%

melting point: 140 to 142 °C
SMILES: CCSC[C@H](C)NC(=O)c1c(Br)cccc1C(=O)Nc1ccc(C(F)(C(F)F)C(F)(F)F)cc1Br (some centres unmarked) [Compound 68]
pest or weed control at 20 ppm (Heliothis armigera): 100%
